Experimental findings from PMC10823475, “Design, Synthesis, and Evaluation of Inhibitors of Hedgehog Acyltransferase” (Journal of Medicinal Chemistry, 2024) are described below.

Data set [1] is described as follows: PAMPA parallel artificial membrane permeability assay. The conditions noted are these: for recovery at 16 h, 10 µM / Papp at 16 h, 10 μM: PAMPA. Background: The PAMPA barrier holds no transporters, so it reflects passive diffusion.
Experimental: Passive diffusion was estimated using the PAMPA method. […] The donor plate was a MultiScreen-IP Plate with 0.45 μm hydrophobe Immobilon-P Membrane (Millipore, #MAIPNTR10) and the acceptor plate was a MultiScreen 96-well Transport Receiver Plate (Millipore, #MATRNPS50). […] Acceptor pH was 7.4. All samples were analyzed against an external, matrix-matched, standard curve by LC-MS/MS with a Waters (Elstree, Herts. UK) Acquity H-class LC system coupled to a Waters TQ-S mass spectrometer. Permeability values (cm/s) were calculated using the following equation: [drawing 2] and VD = volume of donor; VA = volume of acceptor; area = surface area of the membrane · porosity.
The nature of data set [2]: Microsomal incubations, human liver microsomes. In kind it is in vitro ADME. Particulars: 1 μM. As to the method: Metabolic stability assays were performed using a Microlab Star liquid handling workstation (Hamilton Robotics, Bonaduz, Switzerland). Test compounds (1 μM, 1% DMSO) were preincubated at 37 °C for 10 min in 0.5 mg/mL female CD1 mouse and mixed gender human liver microsomes in 10 mM phosphate buffered saline (PBS; Sigma-Aldrich Company Ltd. (Dorset, UK)). Microsomes were purchased either from Sekisui XenoTech, LLC (Kansas City, USA) or BioreclamationIVT (Frankfurt Am Main, Germany). Reactions were initiated by the addition of NADPH (final concentration 1 mM). At 0, 15, and 30 min, aliquots were removed from each incubation and quenched in 3 volumes of ice-cold methanol containing olomoucine (Sigma-Aldrich, Dorset, UK) as an internal standard. […] The percentage metabolized was calculated by comparing peak area ratio (peak area test compound/peak area of internal standard) at t = 15 and 30 min versus t = 0 min.
A general note: Microsomes from liver hold many membrane-bound enzymes, among them those of drug oxidation.

Data set [3] in a line: MTS assay, cytotoxicity (72 h). In kind it is cell-based. Particulars: human, HEK293a SHH+ cells, 72 h; for CC50 at 72 h: read-out: MTS Assay (HEK293a SHH+) CC50 (CI95). The gist of the method:
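Cells plated at 5000/well, cultured 24 h, then exposed to analogues (0.14–100 μM final) in DMEM/10% FBS for 72 h. MTS/PMS added for 3 h at 37 °C and absorbance read at 490 nm; data normalised to DMSO vehicle and puromycin (2 μg/mL) wells, curves fitted with a variable-slope sigmoidal model.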
On the technique in general: Formazan colour is commonly taken as a measure of viable cells.

For the next data set, the target named is T1, purified HHAT (Homo sapiens, UniProt Q5VTY9).
T1 construct: made in house
T1 sequence (Q5VTY9 whole entry): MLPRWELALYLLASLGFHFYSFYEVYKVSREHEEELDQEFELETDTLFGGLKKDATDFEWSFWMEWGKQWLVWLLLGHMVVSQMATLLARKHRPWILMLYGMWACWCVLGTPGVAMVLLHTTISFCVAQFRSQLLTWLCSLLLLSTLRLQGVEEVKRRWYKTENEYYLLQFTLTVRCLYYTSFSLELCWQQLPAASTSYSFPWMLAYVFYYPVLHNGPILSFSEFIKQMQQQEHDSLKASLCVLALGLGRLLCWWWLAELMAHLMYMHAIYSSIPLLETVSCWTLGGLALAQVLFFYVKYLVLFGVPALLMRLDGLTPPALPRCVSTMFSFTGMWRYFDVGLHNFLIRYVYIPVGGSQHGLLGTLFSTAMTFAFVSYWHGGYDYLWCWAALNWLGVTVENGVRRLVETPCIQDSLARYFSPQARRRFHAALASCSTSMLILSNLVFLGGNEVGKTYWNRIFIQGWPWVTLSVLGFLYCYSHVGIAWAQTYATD
Nature of the data set: Acyl-cLIP assay, inhibition of purified HHAT. In kind it is biochemical. The conditions noted are these: for LLEAcyl-cLIP: from Acyl-cLIP IC50 and clogDpH7.4; for IC50: purified HHAT, read-out: Acyl-cLIP Assay IC50 (CI95); for fold more potent than analogues 19, 32, and 34: meta-methyl on 4-position aromatic ring. The gist of the method: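 Fluorescence polarization of FAM-labelled SHH N-terminal peptide palmitoylated by DDM-solubilized purified recombinant HHAT with palmitoyl-CoA, pH 6.5 MES buffer, read over 30 min. Initial rates normalized to DMSO and no-enzyme controls; IC50 from variable-slope sigmoidal fit of 1:1 serial dilutions; single-point % inhibition at 50 and 25 μM.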

Setting [4] is: pH 5, PAMPA Papp pH 5, donor pH 5, 10 µM.
Setting [5] is: pH 5, PAMPA Permeability Class pH 5, donor pH 5, 10 µM.
Setting [6] is: pH 6.5, PAMPA Papp pH 6.5, donor pH 6.5, 10 µM.
Where [7] appears, read: pH 6.5, PAMPA Permeability Class pH 6.5, donor pH 6.5, 10 µM.
[8] abbreviates: pH 7.4, PAMPA Papp pH 7.4, donor pH 7.4, 10 µM.
Where [9] appears, read: pH 7.4, PAMPA Permeability Class pH 7.4, donor pH 7.4, 10 µM.

Several values for one entry are separate records, joined by “and”; a condition that tells them apart may be missing. Equal entries are not always repeated.

Take `C=CCNCC(=O)N1CCc2sccc2C1COc1ccc(Cl)cc1` (stereo not drawn) [Compound 2]: the recovery at 16 h, 10 µM in data set [1] (pH 5) was less than 31%; in data set [1] (pH 6.5), less than 10%; in data set [1] (pH 7.4), less than 10%. For the same compound, the apparent permeability coefficient (Papp) – broadly, the rate of passage across a membrane or cell layer, normalised by area and donor concentration – at 16 h, 10 μM in data set [1] (setting [4]) was less than 1.5 ×10⁻⁶ cm/s; in data set [1] (setting [5]), less than 5 ×10⁻⁶ cm/s; in data set [1] (setting [6]), 10.9 ×10⁻⁶ cm/s; in data set [1] (setting [7]), 5 to 20 ×10⁻⁶ cm/s; in data set [1] (setting [8]) it was 20.4 ×10⁻⁶ cm/s; in data set [1] (setting [9]) it was more than 20 ×10⁻⁶ cm/s. Also, the “PAMPA passive permeability” value in data set [1] (pH 7.4) is on record as “high passive permeability”. Besides, the “HLM % metabolized after 15 min” value in data set [2] is 43.0%. Besides, the “HLM % metabolized after 30 min” value in data set [2] worked out at 69.5%. In addition, the CC50 (in general, the concentration giving 50% cytotoxicity) at 72 h in data set [3] is 35.9 µM. Further, the viability (usually a read-out of living cells in per cent, often relative to untreated cells) at 72 h, 12.5 µM in data set [3] is 56 ± 3%. In data set [3], the viability at 72 h, 25 µM worked out at 50 ± 2%. The inhibition (commonly the change of the read-out against control, counted positive when it falls) at 25 µM against purified HHAT was found to be 73 ± 9%. The inhibition at 50 µM against purified HHAT worked out at 87 ± 2%. This compound displayed an LLEAcyl-cLIP on purified HHAT of 2.48. Besides, the IC50 – broadly, the concentration that gives 50% inhibition – at purified HHAT was determined as 5.76 µM.

In data set [1] (pH 5), `CC(=O)N1CCc2sccc2C1c1ccccc1` (stereo not drawn) [Compound 5] registered a recovery at 16 h, 10 µM of 95%. Moreover, in data set [1] (setting [4]), the apparent permeability (Papp) at 16 h, 10 μM was more than 200 ×10⁻⁶ cm/s. In addition, the apparent permeability coefficient (Papp) at 16 h, 10 μM in data set [1] (setting [5]) is more than 20 ×10⁻⁶ cm/s. Besides, in data set [1] (pH 6.5), the recovery at 16 h, 10 µM came out at 98%. The same compound came in with an apparent permeability coefficient (Papp) at 16 h, 10 μM in data set [1] (setting [6]) of 117 ×10⁻⁶ cm/s. Further, the apparent permeability coefficient (Papp) at 16 h, 10 μM in data set [1] (setting [7]) is more than 20 ×10⁻⁶ cm/s. In addition, in data set [1] (pH 7.4), the recovery at 16 h, 10 µM was determined as 91% and the “PAMPA passive permeability” value is listed as “high passive permeability”. In addition, the Papp at 16 h, 10 μM in data set [1] (setting [8]) was more than 200 ×10⁻⁶ cm/s. This compound returned a Papp at 16 h, 10 μM in data set [1] (setting [9]) of more than 20 ×10⁻⁶ cm/s. The “PAMPA permeability” value in data set [1] (over the full pH range tested) is on record as “high permeability”. In data set [2], the “HLM % metabolized after 15 min” value worked out at 52.5% and the “HLM % metabolized after 30 min” value was 64.3%. In data set [3], the 50% cytotoxic concentration (CC50) at 72 h came to 13.9 µM; the viability at 72 h, 12.5 µM was 73 ± 2%; the viability at 72 h, 25 µM was determined as 76 ± 4%. At purified HHAT, the inhibition at 25 µM came out at 66 ± 7%; the inhibition at 50 µM stood at 85 ± 5%; the LLEAcyl-cLIP is on record as 2.39; the half-maximal inhibitory concentration (IC50) is 5.3 µM and 5.34 µM.

`CCC(C)CNCC(=O)N1CCc2sccc2C1c1cccc(C)c1` (stereo not drawn) [Compound 17] gave a recovery at 16 h, 10 µM in data set [1] (pH 5) of less than 31%. In data set [1] (setting [4]), this compound returned a Papp at 16 h, 10 μM of less than 0.7 ×10⁻⁶ cm/s. For the same compound, the apparent permeability coefficient (Papp) at 16 h, 10 μM in data set [1] (setting [5]) is less than 5 ×10⁻⁶ cm/s. Also, the recovery at 16 h, 10 µM in data set [1] (pH 6.5) is less than 10%. Also, in data set [1] (setting [6]), the apparent permeability (Papp) at 16 h, 10 μM is less than 9.7 ×10⁻⁶ cm/s. In data set [1] (setting [7]), this compound registered a Papp at 16 h, 10 μM of 5 to 20 ×10⁻⁶ cm/s. Besides, the recovery at 16 h, 10 µM in data set [1] (pH 7.4) was less than 10%. For the same compound, the Papp at 16 h, 10 μM in data set [1] (setting [8]) was less than 4.5 ×10⁻⁶ cm/s. The compound further registered a Papp at 16 h, 10 μM in data set [1] (setting [9]) of less than 5 ×10⁻⁶ cm/s. In addition, in data set [2], the “HLM % metabolized after 15 min” value worked out at 44.4% and the “HLM % metabolized after 30 min” value was 66.7%. Moreover, in data set [3], the CC50 at 72 h stood at 40.7 µM; the viability at 72 h, 12.5 µM came out at 42 ± 3%; the viability at 72 h, 25 µM was 55 ± 1%. At purified HHAT, the inhibition at 25 µM was 93 ± 7%; the inhibition at 50 µM came out at 88 ± 2%; the LLEAcyl-cLIP is reported as 2.91; the “fold more potent than analogues 19, 32, and 34” value is listed as 2–5 fold. The half-inhibitory concentration (IC50) at purified HHAT is 2.13 µM.

For `CCC(C)CNCC(=O)N1CCc2sccc2C1c1cccc(C)n1` (stereo not drawn) [Compound 22], the recovery at 16 h, 10 µM in data set [1] (pH 5) was less than 65%. In data set [1] (setting [4]), this compound yielded a Papp at 16 h, 10 μM of less than 0.4 ×10⁻⁶ cm/s. The Papp at 16 h, 10 μM in data set [1] (setting [5]) is less than 5 ×10⁻⁶ cm/s. Besides, the recovery at 16 h, 10 µM in data set [1] (pH 6.5) was less than 23%. The same compound gave a Papp at 16 h, 10 μM in data set [1] (setting [6]) of 13 ×10⁻⁶ cm/s. In data set [1] (setting [7]), this compound returned an apparent permeability (Papp) at 16 h, 10 μM of 5 to 20 ×10⁻⁶ cm/s. Besides, in data set [1] (pH 7.4), the recovery at 16 h, 10 µM was less than 15% and the “PAMPA passive permeability” value is recorded as “high passive permeability”. The Papp at 16 h, 10 μM in data set [1] (setting [8]) is 42.4 ×10⁻⁶ cm/s. Also, in data set [1] (setting [9]), the apparent permeability (Papp) at 16 h, 10 μM was more than 20 ×10⁻⁶ cm/s. In data set [2], the “HLM % metabolized after 15 min” value came to 36.9% and the “HLM % metabolized after 30 min” value amounted to 56.2%. Further, in data set [3], the CC50 at 72 h was more than 50 µM; the viability at 72 h, 12.5 µM is 92 ± 1%; the viability at 72 h, 25 µM amounted to 89 ± 3%. Also, at purified HHAT, the inhibition at 25 µM was determined as 96 ± 1%; the inhibition at 50 µM came to 103 ± 1%; the LLEAcyl-cLIP turned out to be 4.20; the “fold more potent than analogues 19, 32, and 34” value is recorded as 2–5 fold. The IC50 at purified HHAT was 2.58 µM.

As to `Cc1cccc(C2c3ccsc3CCN2C(=O)CNCC(C)C)n1` (stereo not drawn) [Compound 24], in data set [3], the CC50 at 72 h was more than 50 µM; the viability at 72 h, 12.5 µM was found to be 88 ± 3%; the viability at 72 h, 25 µM turned out to be 80 ± 3%. Further, at purified HHAT, the inhibition at 25 µM was 91 ± 4%, the inhibition at 50 µM came to 95 ± 4%, the LLEAcyl-cLIP amounted to 4.90 and the 50% inhibitory concentration (IC50) worked out at 1.33 µM.

For the compound `Cc1cccc([C@@H]2c3ccsc3CCN2C(=O)CNCC(C)C)n1` [Compound 28], in data set [3], the CC50 at 72 h was more than 100 µM; the viability at 72 h, 12.5 µM was determined as 108 ± 7%; the viability at 72 h, 25 µM turned out to be 105 ± 4%. Also, on purified HHAT, the “HHAT inhibition in the acyl-cLIP assay” value is listed as “no inhibitory activity”, the inhibition at 25 µM was determined as 13 ± 4%, the inhibition at 50 µM worked out at 18 ± 2% and the half-maximal inhibitory concentration (IC50) was more than 100 µM.

Regarding `Cc1cccc([C@H]2c3ccsc3CCN2C(=O)CNCC(C)C)n1` [Compound 30], in data set [2], the “HLM % metabolized after 15 min” value is recorded as 28.8% and the “HLM % metabolized after 30 min” value worked out at 36.9%. In addition, in data set [3], the CC50 at 72 h was more than 50 µM; the viability at 72 h, 12.5 µM came to 101 ± 6%; the viability at 72 h, 25 µM came out at 98 ± 5%. Further, on purified HHAT, the inhibition at 25 µM worked out at 92 ± 4%, the inhibition at 50 µM amounted to 95 ± 4%, the LLEAcyl-cLIP amounted to 5.14 and the IC50 was less than 10 µM. The “fold increase in potency compared to racemate” value on purified HHAT (enantiomer vs racemate (29 vs 21, 30 vs 24, 43 vs 39)) was determined as 2 fold.
